Like-named read-outs stand apart in the source and are kept apart here.
Legend:
[1] = test system: T47D breast cancer cell line; test: Sulforhodamine B viability assay and isobologram / combination index in T47D cells; format: cell-based; conditions: for CI: single agent
Protocol: For assessment of combined BTZ and cilengitide toxicity, T47D cells were seeded at a density of 7500 cells/cm^2 in 96-well cell culture plates and incubated for 24 hours. Cilengitide was diluted to 20 μM in complete DMEM, then 3 serial tenfold dilutions of this were performed in complete DMEM (2 μM, 200 nM and 20 nM). Complete DMEM containing no cilengitide was provided for negative controls.
These dilutions (or DMSO for wells containing no BTZ) were added to aliquots of complete DMEM containing 0-20 μM cilengitide for a 1/150 dilution. Aliquots (0.1 mL) of each mixture were added to wells already containing 0.1 mL medium (in duplicate), resulting in a matrix of cilengitide (10 nM-10 μM) and/or BTZ (1 nM-10 μM) or neither agent (diluent only).
OD570nm readings were divided by those resulting from negative control (diluent only) wells and expressed as a percentage. Three independent replicates of this experiment were carried out.
The isoboles were obtained similarly by extrapolation of points representing 50% reduction in viability from line graphs of % viability versus concentration of one agent at variable concentration with the other agent supplied at a fixed concentration.
The position of the points on this graph (FIG. 6) indicates whether a combined effect is synergistic (falling below/left of the line) antagonistic (falling above/right of this line) or additive (on or close to this line).
CA,x and CB,x are the concentrations of drug A and drug B used in combination to achieve x % drug effect. ICx,A and ICx,B are the concentrations for single agents to achieve the same effect.

[2] = test system: NCI H-929 human multiple myeloma cells; test: NCI-H929 sub-cutaneous xenograft mouse tumor model, 'high' bortezomib dose (Example 7); format: in vivo, SCID mouse; conditions: for Complete response / No response / Partial response: mice of N = 10; for Complete response / No response / Partial response / Total RR %: bortezomib 1 mg/kg IV biweekly, cilengitide 45 mg/kg IP QD; for Total RR %: sum of PR+CR
Source text: This was then continued until Day 21.
Partial response (PR) is defined as the first measurement of the tumor volume being 50% or less of its Day 1 volume for three consecutive measurements during the course of the study, and equal to or greater than 13.5 mm^3 for one or more of these three measurements. In a complete response (CR), the tumor volume was less than 13.5 mm^3 for three consecutive measurements during the course of the study. Total response rate (RR) is the sum of PR+CR. Treatment began on day 1 and was stopped on Day 21.

[3] = test system: NCI H-929 multiple myeloma cell line; test: NCI H-929 sub cutaneous tumour study with varied BTZ dose, TGI and TTE (Example 8); format: in vivo, mice; conditions: day 18
Protocol: Cilengitide or vehicle was supplied as daily intra-peritoneal injection (45 mg/kg). […] After this point, dosing was continued in groups receiving 0.2 mg/kg and 0.5 mg/kg BTZ t cilengitide until day 31 to allow comparative tumour growth delay (i.e. difference in time to endpoint (TTE). […] TTE was calculated as TTE=[log(endpoint volume)-b]/m where TTE is expressed in days, endpoint volume is expressed in mm^3, b is the intercept, and m is the slope of the line obtained by linear regression of a log-transformed tumour growth data set. TTE values were plotted in Kaplan-Meier diagrams (FIGS. 9 and 10).

[4] = CD-1 mice; 4 mg/kg PO versus 0.8 mg/kg intravenously; cited from earlier work
[5] = Sprague-Dawley rats; AUC intravenous versus intra-gastric administration; cited from earlier work
20S proteasome = 20S proteasome (Homo sapiens, UniProt P20618+P28074); conditions: cited from earlier work
[6] = test system: CWR22 human prostate cancer xenografts; conditions: cited from earlier work
[7] = test system: WSU-DLCL2 lymphoma xenograft; conditions: at MTD; cited from earlier work
[8] = Cilengitide oral bioavailability, plasma level by LC-MS after intra-gastric gavage; format: in vivo; conditions: mice, 100 mg/kg intra-gastric gavage
Protocol: 3 mice were dosed with cilengitide at 100 mg/kg by intra-gastric gavage. Bleeds (0.1 mL) were taken before dosing and 5 and 15 minutes post dosing. Terminal bleeds (orbital vein) were taken at 60 minutes post-dose. All bleeds were transferred into Li-heparin tubes and plasma prepared by centrifugation. Aliquots of plasma (pooled per timepoint) were processed for analysis by addition of 3 volumes of acetonitrile, centrifuged for 1 minute at 13,000 rpm, then the supernatant recovered.
Samples were analysed by LC-MS alongside standards containing known amounts of cilengitide (1 ng/mL-1000 ng/mL). Cilengitide was undetectable in pre-dose, 5 minute and 15 minute time points. At the 60 minute time point: cilengitide levels were estimated to be 94.2 ng/mL.

PHTX22L xenografts = conditions: MTD level treatment; cited from earlier work
DP54-Luc model = conditions: in vivo; cited from earlier work
[9] = By Day 42, treatment stopped on Day 21, N = 10
[10] = at maximum tolerated dose (MTD)

Which CI [1] does the source give for `CC(C)C[C@H](NC(=O)[C@H](Cc1ccccc1)NC(=O)c1cnccn1)B(O)O` [Bortezomib] here?
The CI was 1.00.

And the “mice showing a complete response” value ([2]; By Day 8, bortezomib 1 mg/kg)?
The value was 10%.

And the “animals remained 'cured' (tumours did not regrow)” value ([2]; By Day 42, treatment stopped on Day 21)?
The value was 60%.

And the “animals that reached end point (tumour volume>2000 mm^3)” value [2, 9]?
Its value is 1.

And the animals that relapsed [2, 9]?
Its animals that relapsed is 3 animals.

And the Complete response ([2]; Day 1)?
The Complete response was 0.

What about the No response ([2]; Day 1) of the same compound?
Its No response is 10.

What about the Partial response ([2]; Day 1) of the same compound?
The Partial response was 0.

What about the “Total RR %” value ([2]; Day 1, N = 10) of the same compound?
The value was 0%.

And the Complete response ([2]; Day 4)?
Its Complete response is 0.

And the No response ([2]; Day 4)?
Its No response is 7.

And the Partial response ([2]; Day 4)?
Its Partial response is 3.

And the “Total RR %” value ([2]; Day 4, N = 10)?
The value was 30%.

And the “Total RR %” value ([2]; Day 4, N = 10, listed as bortezomib)?
The value was 30%.

And the Complete response ([2]; Day 8)?
The Complete response was 1.

And the No response ([2]; Day 8)?
The No response was 3.

What about the Partial response ([2]; Day 8) of the same compound?
The Partial response was 6.

What about the “Total RR %” value ([2]; Day 8, N = 10) of the same compound?
The value was 70%.

What about the Complete response ([2]; Day 12) of the same compound?
Its Complete response is 4.

And the No response ([2]; Day 12)?
The No response was 2.

And the Partial response ([2]; Day 12)?
The Partial response was 4.

What about the Complete response ([2]; Day 15) of the same compound?
The Complete response was 4.

And the No response ([2]; Day 15)?
The No response was 2.

What about the Partial response ([2]; Day 15) of the same compound?
Its Partial response is 4.

And the Complete response ([2]; Day 18)?
Its Complete response is 4.

And the No response ([2]; Day 18)?
Its No response is 1.

And the Partial response ([2]; Day 18)?
Its Partial response is 5.

And the “Total RR %” value ([2]; Day 18, N = 10)?
The value was 90%.

And the Complete response ([2]; Day 21)?
The Complete response was 5.

What about the No response ([2]; Day 21) of the same compound?
The No response was 1.

What about the Partial response ([2]; Day 21) of the same compound?
The Partial response was 4.

And the “Total RR %” value ([2]; Day 21, N = 10)?
The value was 90%.

And the “Total RR %” value ([2]; Day 21, N = 10, listed as bortezomib)?
Its value is 90%.

What about the “mice that failed to respond at all” value ([2]; last treatment day (Day 21), bortezomib 1 mg/kg) of the same compound?
Its value is 10%.

What about the “Tumour growth inhibition (TGI)” value ([3]; 0.5 mg/kg BTZ and below, without cilengitide) of the same compound?
The value was “virtually ineffective”.

And the “Tumour growth inhibition (TGI)” value ([3]; BTZ doses of 0.7 mg/kg and greater, biweekly intravenous)?
The value was “almost complete TGI”.

And the estimated oral bioavailability [4]?
Its estimated oral bioavailability is “approximately 11%”.

What about the calculated bioavailability [5] of the same compound?
Its calculated bioavailability is 46%.

And the proteasome dissociation half-life (20S proteasome)?
Its proteasome dissociation half-life is “approximately 110 minutes”.

And the anti-tumoral activity [6, 10]?
The anti-tumoral activity was “effective anti-tumoral activity”.

What about the anti-tumoral activity [7] of the same compound?
Its anti-tumoral activity is “ineffective”.

Which IC50 ([1]; read-out: Cilengitide (M), concentration resulting in 50% reduction in viability as single agent (IC50), bortezomib 0) does the source give for `CC(C)[C@H]1C(=O)N[C@@H](CCCN=C(N)N)C(=O)NCC(=O)N[C@@H](CC(=O)O)C(=O)N[C@H](Cc2ccccc2)C(=O)N1C` [Cilengitide] here?
Its IC50 is 6.2e-06 M.

And the CI [1]?
The CI was 1.00.

What about the Complete response ([2]; Day 1) of the same compound?
Its Complete response is 0.

What about the No response ([2]; Day 1) of the same compound?
Its No response is 10.

What about the Partial response ([2]; Day 1) of the same compound?
Its Partial response is 0.

And the “Total RR %” value ([2]; Day 1, N = 10)?
Its value is 0%.

And the Complete response ([2]; Day 4)?
Its Complete response is 0.

What about the No response ([2]; Day 4) of the same compound?
Its No response is 10.

What about the Partial response ([2]; Day 4) of the same compound?
The Partial response was 0.

And the “Total RR %” value ([2]; Day 4, N = 10)?
The value was 0%.

And the Complete response ([2]; Day 8)?
The Complete response was 0.

And the No response ([2]; Day 8)?
The No response was 10.

What about the Partial response ([2]; Day 8) of the same compound?
The Partial response was 0.

What about the “Total RR %” value ([2]; Day 8, N = 10) of the same compound?
Its value is 0%.

And the Complete response ([2]; Day 12)?
Its Complete response is 0.

What about the No response ([2]; Day 12) of the same compound?
Its No response is 10.

And the Partial response ([2]; Day 12)?
The Partial response was 0.

And the “Total RR %” value ([2]; Day 12, N = 10)?
Its value is 0%.

And the Complete response ([2]; Day 15)?
The Complete response was 0.

What about the No response ([2]; Day 15) of the same compound?
Its No response is 10.

And the Partial response ([2]; Day 15)?
The Partial response was 0.

What about the “Total RR %” value ([2]; Day 15, N = 10) of the same compound?
Its value is 0%.

What about the Complete response ([2]; Day 18) of the same compound?
Its Complete response is 0.

And the No response ([2]; Day 18)?
The No response was 10.

And the Partial response ([2]; Day 18)?
The Partial response was 0.

And the “Total RR %” value ([2]; Day 18, N = 10)?
The value was 0%.

What about the Complete response ([2]; Day 21) of the same compound?
Its Complete response is 0.

And the No response ([2]; Day 21)?
The No response was 10.

What about the Partial response ([2]; Day 21) of the same compound?
Its Partial response is 0.

What about the “Total RR %” value ([2]; Day 21, N = 10) of the same compound?
The value was 0%.

What about the “cilengitide levels in plasma” value ([8]; 5 minute time point) of the same compound?
Its value is “undetectable”.

What about the “cilengitide levels in plasma” value ([8]; 15 minute time point) of the same compound?
The value was “undetectable”.

And the level at 1 h ([8]; mouse, plasma, po, 60 minute time point, read-out: cilengitide levels in plasma)?
The level at 1 h was 94.2 ng/mL.

With `CC(C)C[C@H](NC(=O)CNC(=O)c1cc(Cl)ccc1Cl)B(O)O` [Ixazomib, [(1R)-1-[[2-[(2,5-dichlorobenzoyl)amino]acetyl]amino]-3-methyl-butyl]boronic acid] as the compound, how does the proteasome dissociation half-life (20S proteasome) read?
The proteasome dissociation half-life was “approximately 18 minutes”.

What about the “release from proteasome, fold faster than bortezomib” value (20S proteasome) of the same compound?
The value was “approximately 6 fold”.

What about the anti-tumoral activity ([6]; at half the MTD) of the same compound?
Its anti-tumoral activity is “more effective than bortezomib”.

And the anti-tumoral activity [6, 10]?
Its anti-tumoral activity is “effective anti-tumoral activity”.

What about the anti-tumoral activity [7] of the same compound?
Its anti-tumoral activity is “significant anti-tumoral activity”.

What about the anti-tumoral effect (PHTX22L xenografts) of the same compound?
The anti-tumoral effect was “only ixazomib was found to exhibit an anti-tumoral effect”.

And the “alleviation of osteolytic bone disease” value (DP54-Luc model)?
Its value is “effective”.
